Data taken from publication PMC11327196, “A phase 1 study to assess the absolute bioavailability, mass balance, pharmacokinetics, metabolism, and excretion of [^14C]-mobocertinib, an oral inhibitor of EGFR exon 20 insertion mutations, in healthy participants” (Investigational New Drugs, 2024).

Columns and labels:
[1] = Period 1 absolute bioavailability study: plasma PK after single oral 160 mg mobocertinib capsules; assay type: in vivo, human
Description: This was a two-period, open-label, single-dose phase 1 study (NCT03811834) conducted at one clinical site (Celerion, Lincoln, Nebraska, USA) in healthy male participants. The primary objective of Period 1 was to determine the absolute bioavailability of mobocertinib following a single oral dose of 160 mg mobocertinib as capsules and a single intravenous (IV) microdose of 50 µg (~ 2 µCi) [^14C]-mobocertinib. The primary objectives of Period 2 were to (1) assess the cumulative excretion of total radioactivity in urine and feces (mass balance); (2) assess the metabolite profile of mobocertinib in plasma, urine, and feces; and (3) characterize the PK of mobocertinib, AP32960, and AP32914 in plasma, whole blood, and urine, and total radioactivity concentration equivalents in plasma and whole blood following a single oral dose of 160 mg (~ 100 µCi) [^14C]-mobocertinib as an oral solution. A sample size of 6 healthy males was selected without statistical considerations and deemed adequate to meet the study objectives. Furthermore, the sample size was limited based on clinical considerations for human ADME studies and to limit exposure to radioactivity.
On Day 1 of Period 1, following an overnight fast of at least 10 h, participants received a single 160 mg dose of non-radiolabeled mobocertinib as capsules. At 3.75 h post oral dosing (i.e., 15 min before the median oral tmax of ~ 4 h), participants received a nominal dose of 50 µg (~ 2 µCi) [^14C]-mobocertinib as a 15-minute IV infusion. However, due to nonspecific binding of [^14C]-mobocertinib to the dosing syringe and tubing, actual doses administered ranged from 36.8 to 38.7 µg (1.47 to 1.55 µCi). Participants were required to stay in the clinic from Day − 1 through at least the 96-hour blood draw (Day 5) or until a discharge criterion was met (i.e., ≥ 80% of the total administered radioactive dose was recovered in urine and fecal samples or excretion of radioactivity in urine and feces combined had declined to ≤ 1% of the total administered dose per day for ≥ 2 consecutive intervals), up to a maximum of 7 days postdose (Day 8). Blood samples for the measurement of plasma mobocertinib, AP32960, and AP32914 concentrations were collected predose and at 0.5, 1, 2, 3, 4, 5, 6, 8, 12, 24, 36, 48, 72, and 96 h after oral administration. Additional blood samples to determine [^14C]-total radioactivity, [^14C]-mobocertinib, [^14C]-AP32960, and [^14C]-AP32914 in plasma were collected at 3.75 h after oral dosing (i.e., predose for [^14C] assessments), at the end of the IV infusion, and at 10, 20, and 30 min, and 1, 2, 4, 8, 20, 32, 44, 68, and 92 h after the end of infusion. […] Urine and feces were collected before oral dosing (− 48–0 h); urine was collected over 0–3.75 h, 3.75–12 h and 12–24 h after oral dosing; feces were collected from 0 to 3.75 h and 3.75–24 h after oral dosing; both urine and feces were then collected over 24-hour intervals until a discharge criterion was met, or up to Day 8 (168 h postdose).
(§1) Plasma, whole blood, and urine samples were assayed for mobocertinib, AP32960, and AP32914 concentrations using liquid chromatography-tandem mass spectrometry (Q2 Solutions, Ithaca, New York, USA). The analytical range for each analyte was 0.250 to 500 ng/mL in whole blood and plasma, and 1.00 to 1000 ng/mL in urine. […] Urine and fecal samples were assayed for total radioactivity following the IV dose of [^14C]-mobocertinib in Period 1, and whole blood, plasma, urine, and fecal samples were assayed for total radioactivity following the oral dose of [^14C]-mobocertinib in Period 2 using liquid scintillation counting (LSC; Celerion, Lincoln, Nebraska, USA; LLOQs: Period 1 urine: 0.115–0.118 ng eq/g, feces: 0.720–0.759 ng eq/g; Period 2 whole blood: 87.3–112 ng eq/g, plasma: 116–132 ng eq/mL, urine: 37.8–46.8 ng eq/g, feces: 110–336 ng eq/g across participants). […]

[2] = Period 1: excretion in urine and feces after IV [14C]-mobocertinib; assay type: in vivo, human; settings: Period 1, IV infusion 50 µg (~2 µCi) [14C]-mobocertinib
Description: On Day 1 of Period 1, following an overnight fast of at least 10 h, participants received a single 160 mg dose of non-radiolabeled mobocertinib as capsules. At 3.75 h post oral dosing (i.e., 15 min before the median oral tmax of ~ 4 h), participants received a nominal dose of 50 µg (~ 2 µCi) [^14C]-mobocertinib as a 15-minute IV infusion. However, due to nonspecific binding of [^14C]-mobocertinib to the dosing syringe and tubing, actual doses administered ranged from 36.8 to 38.7 µg (1.47 to 1.55 µCi). Participants were required to stay in the clinic from Day − 1 through at least the 96-hour blood draw (Day 5) or until a discharge criterion was met (i.e., ≥ 80% of the total administered radioactive dose was recovered in urine and fecal samples or excretion of radioactivity in urine and feces combined had declined to ≤ 1% of the total administered dose per day for ≥ 2 consecutive intervals), up to a maximum of 7 days postdose (Day 8). Blood samples for the measurement of plasma mobocertinib, AP32960, and AP32914 concentrations were collected predose and at 0.5, 1, 2, 3, 4, 5, 6, 8, 12, 24, 36, 48, 72, and 96 h after oral administration. Additional blood samples to determine [^14C]-total radioactivity, [^14C]-mobocertinib, [^14C]-AP32960, and [^14C]-AP32914 in plasma were collected at 3.75 h after oral dosing (i.e., predose for [^14C] assessments), at the end of the IV infusion, and at 10, 20, and 30 min, and 1, 2, 4, 8, 20, 32, 44, 68, and 92 h after the end of infusion. […]
as §1, with “USA).” for “USA). The analytical range for each analyte was 0.250 to 500 ng/mL in whole blood and plasma, and 1.00 to 1000 ng/mL in urine.”, “participants). Urine and fecal samples collected in Period 1 that had total radioactivity concentration equivalents below the LLOQ of the Celerion LSC assay were sent to Pharmaron for measurement by AMS (LLOQ: urine: 0.0000253–0.00111 ng eq/g; feces: 0.000404–0.0278 ng eq/g across participants).” for “participants).”

[3] = Period 1, single oral 160 mg mobocertinib capsules, geometric mean (geometric CV%)

Row | administered radioactive dose excreted in urine as analyte [2] [%] | dose recovered as total radioactivity in feces overall [2] [%] | dose recovered as total radioactivity in urine overall [2] [%] | radioactive dose excreted in feces as analyte [2] [%] | Compound | CL/F [1, 3] | Cmax [1, 3] | tmax ([1]; Period 1, single oral 160 mg mobocertinib capsules, median (range)) | bioavailability ([1]; male, human, Period 1, oral 160 mg capsules AUC∞ vs dose-normalized IV microdose AUC∞, 90% CI 22.4–60.2%, read-out: geometric mean absolute oral bioavailability) [%] | AUC(0-inf) ([1]; male, human, Period 1, single oral 160 mg mobocertinib capsules, geometric mean (geometric CV%)) [ng·h/mL] | Vd/F ([1]; male, human, Period 1, single oral 160 mg mobocertinib capsules, geometric mean (geometric CV%), read-out: Vz/F) [L] | half-life ([1]; male, human, Period 1, single oral 160 mg mobocertinib capsules, geometric mean (geometric CV%), read-out: t1/2z (converted)) [h]
1 | – | – | – | – | C=CC(=O)Nc1cc(Nc2ncc(C(=O)OC(C)C)c(-c3cn(C)c4ccccc34)n2)c(OC)cc1N(C)CCN(C)C [Mobocertinib] | 152 (64.9) L/h | 56.7 (52.2) ng/mL | 5.0 (4.0–6.0) h | 36.7 | 1050 | 5030 | 22.9
2 | 1.5 | 69.9 | 4.7 | 2.5 | [^14C]-mobocertinib | – | – | – | – | – | – | –
